# Test results as given in patent publication US20170157102A1, “USE OF PERHEXILINE” (CONSIGLIO NAZIONALE DELLE RICERCHE, priority 2014, published 2017).
# Where two headings read alike, the source gives them in different places.
# Tests used:
# [1] = tested on: adult parasites (schistosomes); details: treatment of adult parasites (Redman et al.); cited from earlier work
# [2] = tested on: S. mansoni adult worm pairs; assay: Egg production of adult worm pairs in vitro; type: cell-based, Schistosoma mansoni; details: 5 μM overnight, vs DMSO control
# Description: (§1) Seven-eight male worms or 4-5 worm pairs were recovered under aseptic conditions from infected mice by perfusion of mesenteric veins at 28 days (juvenile) or 56-days post infection (adult pairs) or 2-4 months post-infection (adult males). After washing, the worms were transferred into a 35 mm plates containing 3 mL of DMEM complete worms media and incubated at 37° C. in a humid atmosphere containing 5% CO2 with drugs overnight. Next, the worms were washed 3 times with drug-free medium and were incubated for 5 days at 37° C./5% CO2 and monitored daily under a stereo microscope for mobility, tegumental damage, viability and egg output (worm pairs). The experiment was repeated at least three times.
# In order to test the effect of PHX on egg production, adult worm pairs were treated overnight using the sub lethal dose of 5 μM. Total number of eggs laid by female parasites was determined 3 and 6 days after the treatment. To do so, the medium containing the eggs was harvested and briefly centrifuged. The pellet containing the eggs was re-suspended in 500 μl of saline solution and the egg number was determined by microscopy analysis.
# [3] = tested on: S. mansoni newly transformed schistosomula; assay: CellTiterGlo luminescent viability assay on schistosomula; details: 24 h; for CC50: values of two independent experiments
# Description: Cercariae, shed from infected snails, were subsequently converted to schistosomula by mechanical transformation using an optimised version of the protocol of Brink et al., 1977 previously described (Protasio et al. 2013). Briefly, the cercarial suspension (approximately 50.000 cercariae) was placed in a glass 40 ml tube on ice for 60 minutes in order to reduce parasite motility. Tail detachment was obtained by shaking cercariae vigorously for approximately 30 seconds in a vortex mixer before passing these through a 22G syringe needle approximately 10-12 times. Next, the separation of heads/schistosomula and tails was obtained by placing the heads plus tails suspension on 4-5 ml of ice-cold 70% Percoll in tube and centrifugating (600×g) for 10 minutes at 4° C. Finally, the schistomula preparations were washed twice (with DMEM complete media lacking FBS) and microscope examination was used to assess the quantity and quality of purified schistosomula (less than 1% tails). Schistosomula were cultured at 37° C. in 6 wells tissue culture plates containing 3 ml schistosomula complete media in an atmosphere of 5% CO2 for 24 hr before any further experimental manipulations proceeded. Negligible parasite death occurred in this media during the 24 hr culturing period. Following this, schistosomula were aliquoted into flat-bottom 384-well black-sided for compound assays.
# Compounds are stored as solution of 100% DMSO at −20 ° C. under inert atmosphere. Intermediate storage microplates, in the 384 well/plate format, are prepared on demand and stored in the same controlled environment as the stock solutions. Intermediate microplate stored compounds are transferred to assay plates by the acoustic droplet ejection technology (ATS-100, EDC Biosystems USA) which ensures a safe, contactless, pre-dilution free delivery. The test set was transferred to 384 well, black, tissue culture treated destination plate. […]
# The plate set was let to incubate with the compounds at 37° C./5% CO2 for 24 hours. […] The readout, luminescence based, was carried out by a CCD based detector (ViewLux, PerkinElmer USA). […]
# [4] = cited from earlier work
# S. mansoni adult worms = assay: microbe, parasite or virus in culture; type: cell-based, Schistosoma mansoni
# Description: (§2) FIG. 1. Adult worms (8 weeks old, S. mansoni) in vitro survival following overnight treatment with 10 μM PHX, 10 μM Gambogic Acid, 10 μM Praziquantel (PZQ) or DMSO (vehicle). Parasites death was assessed by optical examination each day using the following criteria: reduction of motility, tegumental damages and darker appearance. Data shown are the means of results of at least three experiments.
# as §1
# Male adult worms (7-8 worms/sample) obtained from infected mice were cultured at 37° C., 5% CO2 in DMEM complete medium (10% FBS) in presence of different concentrations of PHX (3-10 μM) and for variable time (12h to 5 days). For all experiments Gambogic Acid (1-10 μM) and PZQ (1-10 μM) were used as positive controls while DMSO was used as negative control. […] Parasites death was assessed by optical examination each day using the following criteria: reduction of motility, tegumental damages and darker appearance.
# S. mansoni = assay: In vivo efficacy in mice infected with S. mansoni (total worm count, hepatic egg burden); details: two weeks after treatment
# Description: FIG. 3. Effect of PHX on total worm count (A) and egg burdens (B) in mice infected with S. mansoni. One-way analysis of variance (one-way Anova) was used to compare means of the samples. The p-values are indicated. PZQ (Praziquantel, oral administration, 500 mg/kg), PERHEX LOW (PHX, oral administration, 23 mg/kg), PERHEX HIGH (PHX, oral administration, 70 mg/kg).
# Female ICR (CD-1) outbred and C57BL/6, 4-7 weeks old mice (Harlan Laboratories) were housed under controlled conditions [(22±2)° C.; (65±15)% relative humidity; 12/12 h light/dark cycle]. The mice received standard food and water ad libitum. Female ICR (CD-1) outbred mice were infected transcutaneously with approximately 80 (for mixed infection) or 200 (single sex) S. mansoni cercariae for life cycle maintainance and in vitro worm assays. For in vivo experiments, C57BL/6 mice were infected with 140 cercariae and administered with selected compounds.
# C57B/L6 inbred female mice (5-6 weeks old) were divided in 4 groups of 7 animals each and treated with DMSO (control), PZQ or two dosages of PHX. All compounds were administered orally (vehicle is 2.5% Cremophor EL) 42 days post infection. The amount of PHX administered (23 mg/kg and 70 mg/kg) was guided by available information of therapeutic dose in use for angina treatment (Ashrafian H., 2007); PZQ was used at the standard dose (500 mg/Kg). Toxicity of compounds (e.g., death and behavioral changes) was assessed daily during and after treatment until the time of euthanasia. At 56 days post infection, mice were euthanized with an intraperitoneal injection of Tiletamina/Zolazepam ([…])+Xylazina (100 mg/kg) and adult worms perfused as described above.
# Compound efficacy in vivo, measured using a number of criteria, was compared to that of the anti-schistosomal drug, PZQ. The criteria include the numbers of male and female worms (total worm count) recovered by perfusion and hepatic egg burden (number of eggs in the liver). To recover eggs trapped in liver, whole livers from individual mice were excised, weighed and incubated in a 4% KOH solution over night at 37° C. Eggs were counted under a dissecting microscope as previously described (Cheever, A. W., 1968).
# Based on the strong in vitro effects of PHX against larvae, juvenile (4 weeks old) and adult worms, the in vivo efficacy of the drug was tested in mice infected with S. mansoni. Based on the previous cardiovascular studies of the drug (Ashrafian H., 2007), two different concentrations of PHX were used: a low dose (23 mg/Kg) and a high dose (70 mg/Kg). […] Two weeks after the treatment, mice were sacrificed and the total worm count and egg burden (number of eggs in the liver) were determined (FIG. 3). […]
# [5] = tested on: S. mansoni juvenile worms; details: at 8 days; previous report (Livia-Pica et al, 2004); cited from earlier work
# S. mansoni worms = details: juvenile 4 weeks after infection vs adult 6 or 7 weeks, mice (Pica-Mattoccia et al., 2004); cited from earlier work
# [6] = tested on: S. mansoni juvenile worms (4 weeks old); type: cell-based, Schistosoma mansoni; details: 10 μM overnight, at 5 days
# Description: as §2, with “2. Juvenile” for “1. Adult”, “(4” for “(8”
# as §1
# Juvenile worms (4 weeks old parasites) were also tested at the same conditions reported above. Following over night incubation of PHX (10 μM), viability of parasites was reduced by 80% after 5 days of observation (FIG. 2). […]
# [7] = HIGH dose 70 mg/Kg oral single dose
# [8] = LOW dose 23 mg/Kg oral single dose
smiles,measurement,setting,value
Cl.N [NH4Cl],rate of BODIPY FL C5-sphyngomyelin breakdown,[1],no decrease
"C1CCC(C(CC2CCCCN2)C2CCCCC2)CC1 (stereo not shown) [Perhexiline, 2-(2,2-dicyclohexylethyl)piperidine]",reduction in egg production,[2]; 3 days after treatment,around 60%
same,reduction in egg production,[2]; 6 days after treatment,around 60%
same,CC50,"[3]; Schistosoma mansoni, read-out: CC50 of newly transformed schistosomula, 24 h, 0.019-50 μM, four parameter fit",9.56 µM
same,CC50,"[3]; read-out: CC50 of newly transformed schistosomula, 0.019-50 μM, four parameter fit",12.4 µM
same,cytotoxicity in the initial screen,"[3]; single concentration 10 μM, threshold 70% cytotoxicity, scaled DMSO 0% / gambogic acid 100%",positive compound
same,inter-individual differences in apparent oral clearance,[4]; CYP2D6 polymorphisms,approximately 100 fold
same,plasma half-life,[4]; most subjects,24 to 48 h
same,plasma half-life,[4]; poor metabolizers (CYP2D6),up to 40 days
same,defined therapeutic range of plasma concentration,[4]; range that avoids hepatotoxicity and peripheral neuropathy (Horowitz et al 1986),0.15-0.6 mg 1^−1
same,rate of BODIPY FL C5-sphyngomyelin breakdown,[1],no decrease
same,effect on viability of adult worms,S. mansoni adult worms; 3 μM,no effect
same,inhibition at 5 µM,"S. mansoni adult worms; Schistosoma mansoni, read-out: reduced viability of adult worms",~50%
same,viability of adult parasites,"S. mansoni adult worms; overnight incubation 10 μM, after 5 days",statistically significant decreased viability
same,decrease in total worm counts,S. mansoni; [7],63%
same,reduction of egg burden (number of eggs in the liver),S. mansoni; [7],60%
same,decrease in total worm counts,S. mansoni; [8],35%
same,reduction of egg burden (number of eggs in the liver),S. mansoni; [8],50%
O=C(C1CCCCC1)N1CC(=O)N2CCc3ccccc3C2C1 (stereo not shown) [Praziquantel],survival of juvenile worms,[5],approximately 80%
same,ED50 against juvenile worms relative to adult worms,S. mansoni worms,at least 30 times
same,survival rate of juvenile worms,[6],50%
CNCCCN1c2ccccc2CCc2ccccc21 [desipramine],rate of BODIPY FL C5-sphyngomyelin breakdown,[1],no decrease
